This is an account of results in patent publication US11459315B2, “Modulators of methyl modifying enzymes, compositions and uses thereof” (Constellation Pharmaceuticals, Inc., priority 2017, dated 2022).

Assay [1] has as its system H3K27me3 mark in HeLa cells (EZH2). Briefly: H3K27me3 Alpha Hela Assay (AlphaLISA). It counts as cell-based. The method, then:
H3K27me3 Alpha Hela Assay (AlphaLISA). Ten different doses of each test compound (in a series of 3-fold dilutions) were plated in duplicate 384-well tissue culture treated plates (Catalog #6007680; Perkin Elmer, Waltham, Mass.). Hela cells grown in culture were trypsinized and counted using a Countess® cell counter (Catalog #C10281; Life Technologies, Grand Island, N.Y.). Cell were diluted to 67,000 cells per mL in 10% DMEM (Catalog #10569-010 Life Technologies, Grand Island, N.Y.) and 15 μL (1,000 cells) were plated into each well using the Biotek MicroFlo™ Select Dispenser (BioTek Instruments, Inc. Vermont, USA),) of the 384-well plate. Plates were incubated at 37° C./5% CO2 for 72 hrs. One of the duplicate plates was processed for HeLa assay and the other for viability.
5 μL of Cell-Histone Lysis buffer (1×) (Catalog #AL009F1 Perkin Elmer; Waltham, Mass.) per well was added to the plate processed for AlphaLISA and the plate was incubated at RT for 30 minutes on a plate shaker with low speed (Model #4625-Q Thermo Scientific; Waltham, Mass.). Then, 10 μL per well Histone Extraction buffer (catalog #AL009F2; Perkin Elmer; Waltham, Mass.) was added and the plate further incubated at RT for 20 min on plate shaker with low speed. Next, 10 μL of 5× mix of anti-K27me3 acceptor beads plus Biotinylated anti-Histone H3 (C-ter) Antibody (diluted to 3 nM final) (Catalog #AL118 Perkin Elmer; Waltham, Mass.) was added in each well. Dilution of the acceptor beads and anti-Histone H3 was done in 1× Histone Detection buffer (Catalog #AL009F3 Perkin Elmer; Waltham, Mass.) which was produced by diluting the 10× stock provided. The plate was sealed with an aluminum plate sealer and incubated at 23° C. for 60 min. Next, 10 μL 5× solution of Streptavidin Donor beads were added (Catalog #6760002 Perkin Elmer; Waltham, Mass.) (20 μg/mL final in 1× Histone Detection Buffer), =plate was sealed with Aluminum plate sealer and incubated at 23° C. for 30 min. The plates were then read using an EnVision-Alpha Reader (model #2104 Perkin Elmer; Waltham, Mass.).
Data from both assays was analyzed using Genedata (Basel, Switzerland). Data files were imported to Genedata and assay conditions were specified. A unique Analysis ID was created and the data files analysed to measure dose-dependent inhibition of H3K27me3 mark and cell viability respectively. Readout of DMSO wells were used to normalize the data. Resulting curves were fitted using Smart fit application (Genedata; Basel, Switzerland). The data was checked for quality, validated and integrated in excel format using Stardrop (Optibruim, Cambridge, UK).
EC50 values are reported as follows: “A” indicates an EC50 value of less than 10 nM; “B” indicates an EC50 value of 10 nM to 100 nM; “C” indicates an EC50 value of greater than 100 nM; and “ND” is not determined.

The target of a further assay is PRC2 containing wt EZH2 (Homo sapiens (Human), UniProt Q15910). Briefly: EZH2 biochemical assay (IC50), 3H-SAM incorporation into biotinylated H3 peptide. The method, then: EZH2 biochemical assay (IC50): Compound potencies were assessed through incorporation of ^3H-SAM into a biotinylated H3 peptide. Specifically, 30 pM PRC2 containing wt EZH2 (pentameric complex prepared in-house) was pre-incubated with 450 nM SAM, 450 nM ^3H-SAM, 2 μM H3K27me3 activating peptide (H2N-[…](Kme3)[…]-amide) and compounds (as 10 point duplicate dose response titrations in DMSO, final assay 0.8% DMSO (v/v)) for 3-5 h in 50 mM Tris (pH 8.5), 1 mM DTT, 0.07 mM Brij-35, 0.1% BSA, and 0.8% DMSO in a total volume of 12.5 μl. Reaction was initiated with biotinylated H3 substrate peptide (H2N-[…](Kme1)[…]-NTPEGBiot) as a 2 μM stock in 12.5 μl of buffer and allowed to react at room temperature for 18-22 h. Quenching was accomplished by addition of 20 μl of STOP solution (50 mM Tris (pH 8.5), 200 mM EDTA, 2 mM SAH). 35 μl of the quenched solution was transferred to streptavidin coated FlashPlates (PerkinElmer), incubated 1-2 h, washed, and read in a TopCount Reader (PerkinElmer). IC50s were calculated in Genedata Screener using non-linear least square four parameter fits, where the four parameters were IC50, Hill slope, pre-transitional baseline (0% INH), and post-transitional baseline (100% INH).
PRC2 containing wt EZH2, sequence (Q15910 whole entry): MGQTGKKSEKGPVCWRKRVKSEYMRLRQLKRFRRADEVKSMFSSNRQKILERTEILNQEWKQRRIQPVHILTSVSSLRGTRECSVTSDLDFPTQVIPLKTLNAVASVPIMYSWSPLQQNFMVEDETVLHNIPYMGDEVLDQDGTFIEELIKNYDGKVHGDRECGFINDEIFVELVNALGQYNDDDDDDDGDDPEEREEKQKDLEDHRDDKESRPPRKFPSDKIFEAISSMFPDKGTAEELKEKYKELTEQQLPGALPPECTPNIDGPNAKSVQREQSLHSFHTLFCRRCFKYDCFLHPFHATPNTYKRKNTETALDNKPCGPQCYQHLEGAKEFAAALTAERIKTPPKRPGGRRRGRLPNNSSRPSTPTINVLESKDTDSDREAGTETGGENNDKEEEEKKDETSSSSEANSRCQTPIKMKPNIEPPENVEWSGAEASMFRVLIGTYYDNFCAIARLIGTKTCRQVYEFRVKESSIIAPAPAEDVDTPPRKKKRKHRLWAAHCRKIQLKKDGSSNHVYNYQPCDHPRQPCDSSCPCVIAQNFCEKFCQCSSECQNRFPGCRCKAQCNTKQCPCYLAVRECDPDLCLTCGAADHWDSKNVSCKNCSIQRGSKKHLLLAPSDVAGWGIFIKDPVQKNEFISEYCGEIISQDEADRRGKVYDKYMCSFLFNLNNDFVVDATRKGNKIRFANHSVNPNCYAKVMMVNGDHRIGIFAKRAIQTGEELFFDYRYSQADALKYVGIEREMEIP
PRC2 containing wt EZH2, sequence (O75530 whole entry partner): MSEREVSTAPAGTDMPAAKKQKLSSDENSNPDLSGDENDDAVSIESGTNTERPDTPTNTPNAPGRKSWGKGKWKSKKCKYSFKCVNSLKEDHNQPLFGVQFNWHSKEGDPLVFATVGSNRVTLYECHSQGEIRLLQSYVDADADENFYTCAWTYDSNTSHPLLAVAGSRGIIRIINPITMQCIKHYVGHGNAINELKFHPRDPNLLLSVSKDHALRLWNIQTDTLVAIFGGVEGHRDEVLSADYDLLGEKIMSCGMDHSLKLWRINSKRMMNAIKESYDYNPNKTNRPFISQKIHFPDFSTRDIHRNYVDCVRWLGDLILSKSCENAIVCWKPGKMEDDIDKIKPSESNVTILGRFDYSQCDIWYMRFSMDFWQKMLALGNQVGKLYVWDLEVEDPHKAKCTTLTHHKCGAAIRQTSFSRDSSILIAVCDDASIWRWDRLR
PRC2 containing wt EZH2, sequence (Q15022 whole entry partner): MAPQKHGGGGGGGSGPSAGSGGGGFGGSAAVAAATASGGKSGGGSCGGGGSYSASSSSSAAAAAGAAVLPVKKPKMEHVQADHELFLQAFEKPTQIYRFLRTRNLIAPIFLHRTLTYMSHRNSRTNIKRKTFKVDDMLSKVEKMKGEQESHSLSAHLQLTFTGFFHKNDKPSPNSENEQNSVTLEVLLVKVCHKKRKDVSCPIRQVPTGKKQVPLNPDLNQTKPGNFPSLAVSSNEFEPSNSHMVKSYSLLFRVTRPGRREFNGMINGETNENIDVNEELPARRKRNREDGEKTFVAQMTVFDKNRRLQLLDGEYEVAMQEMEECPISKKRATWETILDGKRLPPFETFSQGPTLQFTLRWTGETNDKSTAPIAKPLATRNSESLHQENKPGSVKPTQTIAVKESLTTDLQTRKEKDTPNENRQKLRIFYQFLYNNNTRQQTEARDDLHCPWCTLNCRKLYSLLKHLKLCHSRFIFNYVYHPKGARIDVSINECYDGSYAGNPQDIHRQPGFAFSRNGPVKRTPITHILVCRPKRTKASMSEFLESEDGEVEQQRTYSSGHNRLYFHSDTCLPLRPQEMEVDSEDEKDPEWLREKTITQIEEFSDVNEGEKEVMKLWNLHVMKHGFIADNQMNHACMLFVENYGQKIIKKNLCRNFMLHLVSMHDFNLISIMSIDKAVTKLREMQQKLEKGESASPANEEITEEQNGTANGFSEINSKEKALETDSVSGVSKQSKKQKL
PRC2 containing wt EZH2, sequence (Q09028 whole entry partner): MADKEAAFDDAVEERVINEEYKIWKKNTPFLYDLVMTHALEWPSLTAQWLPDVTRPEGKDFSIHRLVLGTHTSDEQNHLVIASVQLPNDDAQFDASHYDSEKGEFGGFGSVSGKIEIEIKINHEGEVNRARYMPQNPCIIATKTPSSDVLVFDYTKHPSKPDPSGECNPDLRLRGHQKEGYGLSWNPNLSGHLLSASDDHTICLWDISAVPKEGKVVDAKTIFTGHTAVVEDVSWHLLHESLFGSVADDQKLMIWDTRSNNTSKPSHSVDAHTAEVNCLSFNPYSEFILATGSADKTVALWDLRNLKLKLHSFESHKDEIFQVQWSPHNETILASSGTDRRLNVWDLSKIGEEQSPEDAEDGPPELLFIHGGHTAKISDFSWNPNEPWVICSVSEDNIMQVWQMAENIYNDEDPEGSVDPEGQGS
PRC2 containing wt EZH2, sequence (Q6ZN18 whole entry partner): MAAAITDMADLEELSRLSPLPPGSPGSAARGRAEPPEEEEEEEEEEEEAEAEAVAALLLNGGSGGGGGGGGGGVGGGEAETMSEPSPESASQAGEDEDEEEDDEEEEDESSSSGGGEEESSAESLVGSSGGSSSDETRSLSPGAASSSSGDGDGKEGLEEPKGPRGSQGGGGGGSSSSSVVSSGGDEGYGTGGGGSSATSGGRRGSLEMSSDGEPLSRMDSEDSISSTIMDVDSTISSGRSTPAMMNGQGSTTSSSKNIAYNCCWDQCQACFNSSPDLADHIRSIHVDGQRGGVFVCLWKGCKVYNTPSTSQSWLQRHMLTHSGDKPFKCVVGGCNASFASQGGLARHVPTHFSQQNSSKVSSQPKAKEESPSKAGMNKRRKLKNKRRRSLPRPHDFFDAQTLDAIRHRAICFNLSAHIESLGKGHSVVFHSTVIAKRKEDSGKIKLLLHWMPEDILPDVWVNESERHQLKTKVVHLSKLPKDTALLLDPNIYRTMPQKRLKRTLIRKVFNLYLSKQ
IC50 values are reported as follows: “A” indicates an IC50 value of less than 0.5 nM; “B” indicates an IC50 value of 0.5 nM to 5 nM; “C” indicates an IC50 value of greater than 5 nM for each enzyme; and “ND” is not determined.

Setting [2] is: Homo sapiens, HeLa, HeLa cell assay, Table 3 classes, read-out: EC50 Cellular Activity.
Setting [3] is: 30 pM PRC2 containing wt EZH2; 3-5 h pre-incubation; read-out: EZH2 (IC50).
Setting [4] is: Homo sapiens, HeLa, 72 h, HeLa cells, 72 hrs, read-out: EZH2 Cell H3K27me3 Alpha HeLa (EC50 K27me3).
Where [5] appears, read: HeLa cells, 72 hrs, read-out: EZH2 Cell H3K27me3 Alpha HeLa (EC50 K27me3).
The mark [6] stands for this setting: EZH2 (IC50), 30 pM PRC2 containing wt EZH2; 3-5 h pre-incubation.
The mark [7] stands for this setting: read-out: EZH2 (IC50); 30 pM PRC2 containing wt EZH2; 3-5 h pre-incubation.
Where [8] appears, read: HeLa cell assay, Table 3 classes, read-out: EC50 Cellular Activity.

Molecules are shown by their SMILES. Where two headings read alike, the source gives them in different places.

The term EC50 denotes the midpoint of the concentration-response curve. Regarding `Cc1cc(C)c(CNC(=O)c2c(C)n([C@H](C)C3CCOCC3)c3ccccc23)c(=O)[nH]1`, in assay [1] (setting [2]), the EC50 lay within 25 to 125 nM.
Consider `COc1cc(C)[nH]c(=O)c1CNC(=O)c1c(C)n([C@H](C)C2CCOCC2)c2ccccc12`, for which the EC50 in assay [1] (setting [2]) lay in the range of 25 to 125 nM.
Usually IC50 stands for the point on the concentration scale where inhibition reaches its midpoint. On to `CSc1cc(C)[nH]c(=O)c1CNC(=O)c1c(C)n([C@H](C)[C@H]2CC[C@H](NC3(C)COC3)CC2)c2ccccc12` (single isomer, unassigned) [1 (isomer 1)], for which the IC50 at PRC2 containing wt EZH2 (setting [3]) is under 0.5 nM. Moreover, in assay [1] (setting [4]), the EC50 is under 10 nM.
In the case of `CSc1cc(C)[nH]c(=O)c1CNC(=O)c1c(C)n([C@H](C)[C@H]2CC[C@H](NC3(C)COC3)CC2)c2ccccc12` (single isomer, unassigned) [1 (isomer 2)], at PRC2 containing wt EZH2 (setting [3]), the IC50 is under 0.5 nM. In addition, the EC50 in assay [1] (setting [5]) lay within 10 to 100 nM.
Regarding `CSc1cc(C)[nH]c(=O)c1CNC(=O)c1c(C)n([C@H](C)C2CCC(NC3COC3)CC2)c2ccccc12` (single isomer, unassigned) [2 (isomer 1)], the IC50 at PRC2 containing wt EZH2 (setting [3]) was under 0.5 nM. In addition, in assay [1] (setting [4]), the EC50 is under 10 nM.
On to `CSc1cc(C)[nH]c(=O)c1CNC(=O)c1c(C)n([C@H](C)C2CCC(NC3COC3)CC2)c2ccccc12` (single isomer, unassigned) [2 (isomer 2)], for which the IC50 at PRC2 containing wt EZH2 (setting [3]) was under 0.5 nM. Besides, the EC50 in assay [1] (setting [5]) was in the range of 10 to 100 nM.
As for `CSc1cc(C)[nH]c(=O)c1CNC(=O)c1c(C)n([C@H](C)C2CCC(N(C)C3(C)COC3)CC2)c2ccccc12` (single isomer, unassigned) [3 (isomer 1)], the IC50 at PRC2 containing wt EZH2 (setting [3]) was under 0.5 nM. The EC50 in assay [1] (setting [4]) was under 10 nM.
In the case of `CSc1cc(C)[nH]c(=O)c1CNC(=O)c1c(C)n([C@H](C)C2CCC(N(C)C3(C)COC3)CC2)c2ccccc12` (single isomer, unassigned) [3 (isomer 2)], the IC50 on PRC2 containing wt EZH2 (setting [3]) is under 0.5 nM. In addition, in assay [1] (setting [5]), the EC50 fell in the range of 10 to 100 nM.
`COC1CN(C2CCC([C@@H](C)n3c(C)c(C(=O)NCc4c(SC)cc(C)[nH]c4=O)c4ccccc43)CC2)C1` (single isomer, unassigned) [4 (isomer 1)]: at PRC2 containing wt EZH2 (setting [6]), the IC50 is under 0.5 nM. The EC50 in assay [1] (setting [4]) was under 10 nM.
As to `COC1CN(C2CCC([C@@H](C)n3c(C)c(C(=O)NCc4c(SC)cc(C)[nH]c4=O)c4ccccc43)CC2)C1` (single isomer, unassigned) [4 (isomer 2)], the IC50 at PRC2 containing wt EZH2 (setting [7]) is under 0.5 nM. In addition, the EC50 in assay [1] (setting [5]) was in the range of 10 to 100 nM.
Regarding `CSc1cc(C)[nH]c(=O)c1CNC(=O)c1c(C)n([C@H](C)C2OCC(NC(C)(C)C)CO2)c2ccccc12` (single isomer, unassigned) [5 (isomer 1)], the IC50 at PRC2 containing wt EZH2 (setting [3]) fell in the range of 0.5 to 5 nM. Further, the EC50 in assay [1] (setting [4]) lay within 10 to 100 nM.
With `CSc1cc(C)[nH]c(=O)c1CNC(=O)c1c(C)n([C@H](C)C2OCC(NC(C)(C)C)CO2)c2ccccc12` (single isomer, unassigned) [5 (isomer 2)], the IC50 on PRC2 containing wt EZH2 (setting [3]) was under 0.5 nM. Also, the EC50 in assay [1] (setting [5]) was under 10 nM.
As to `CSc1cc(C)[nH]c(=O)c1CNC(=O)c1c(C)n([C@H](C)C2OCC(NC3(C)COC3)CO2)c2ccccc12` (single isomer, unassigned) [6 (isomer 1)], the IC50 at PRC2 containing wt EZH2 (setting [3]) is under 0.5 nM. Moreover, the EC50 in assay [1] (setting [5]) is under 10 nM.
The matching figures for `CSc1cc(C)[nH]c(=O)c1CNC(=O)c1c(C)n([C@H](C)C2OCC(NC3(C)COC3)CO2)c2ccccc12` (single isomer, unassigned) [6 (isomer 2)]: 0.5 to 5 nM and over 100 nM.
For `CSc1cc(C)[nH]c(=O)c1CNC(=O)c1c(C)n([C@H](C)C2OCC(N(C)C)CO2)c2ccccc12` (single isomer, unassigned) [7 (isomer 1)] the same measures were 0.5 to 5 nM and over 100 nM.
Regarding `CSc1cc(C)[nH]c(=O)c1CNC(=O)c1c(C)n([C@H](C)C2OCC(N(C)C)CO2)c2ccccc12` (single isomer, unassigned) [7 (isomer 2)], the IC50 at PRC2 containing wt EZH2 (setting [3]) is under 0.5 nM. For the same molecule, the EC50 in assay [1] (setting [5]) was under 10 nM.
As for `CSc1cc(C)[nH]c(=O)c1CNC(=O)c1c(C)n([C@H](C)C2COC2)c2ccccc12` (single isomer, unassigned) [14 (isomer 1)], the IC50 at PRC2 containing wt EZH2 (setting [6]) is under 0.5 nM. Further, the EC50 in assay [1] (setting [4]) fell in the range of 10 to 100 nM.
For `CSc1cc(C)[nH]c(=O)c1CNC(=O)c1c(C)n([C@@H](C)C2COC2)c2ccccc12` (single isomer, unassigned) [14 (isomer 2)] the same measures were over 5 nM and over 100 nM.
At PRC2 containing wt EZH2 (setting [6]), `CSc1cc(C)[nH]c(=O)c1CNC(=O)c1c(C)n([C@H](C)C2OCC(N3CCC3(C)C)CO2)c2ccccc12` (single isomer, unassigned) [15 (isomer 1)] gave an IC50 of under 0.5 nM. Further, the EC50 in assay [1] (setting [5]) is under 10 nM.
For the molecule `CSc1cc(C)[nH]c(=O)c1CNC(=O)c1c(C)n([C@H](C)C2OCC(N3CCC3(C)C)CO2)c2ccccc12` (single isomer, unassigned) [15 (isomer 2)], the IC50 at PRC2 containing wt EZH2 (setting [7]) was under 0.5 nM. For the same molecule, in assay [1] (setting [5]), the EC50 was over 100 nM.
For the molecule `COCCN(C)C1COC([C@@H](C)n2c(C)c(C(=O)NCc3c(SC)cc(C)[nH]c3=O)c3ccccc32)OC1` (single isomer, unassigned) [16 (isomer 1)], the IC50 on PRC2 containing wt EZH2 (setting [3]) is under 0.5 nM. Also, the EC50 in assay [1] (setting [5]) is under 10 nM.
For the molecule `COc1cnc2c(c1)c(C(=O)NCc1c(SC)cc(C)[nH]c1=O)c(C)n2[C@H](C)C1CCC(N2CC(OC(F)F)C2)CC1` (single isomer, unassigned) [125 (isomer 2)], at PRC2 containing wt EZH2 (setting [3]), the IC50 is under 0.5 nM.
`Cc1cc(Cl)c(CNC(=O)c2c(C)n([C@H](C)C3OCC(NC(C)(C)C)CO3)c3ccccc23)c(=O)[nH]1` (single isomer, unassigned) [drawing 222]: the concentration for a half-maximal effect (EC50) in assay [1] (setting [8]) lay in the range of 5 to 25 nM.
In the case of `COC1CCC([C@@H](C)n2c(C)c(C(=O)NCc3c(SC)cc(C)[nH]c3=O)c3ccccc32)CC1` (single isomer, unassigned) [drawing 249], the EC50 in assay [1] (setting [2]) was under 5 nM.
As for `CSc1cc(C)[nH]c(=O)c1CNC(=O)c1c(C)n([C@H](C)C2CCC(N3CC(OC(F)F)C3)CC2)c2ccccc12` (single isomer, unassigned) [drawing 253], the EC50 in assay [1] (setting [8]) was in the range of 5 to 25 nM.
On the same count and under the same terms, next, `COC1CN(C2CCC([C@@H](C)n3c(C)c(C(=O)NCc4c(SC)cc(C)[nH]c4=O)c4cccnc43)CC2)C1` (single isomer, unassigned) [drawing 260]: over 125 nM; `CCOC1CN(C2CCC([C@@H](C)n3c(C)c(C(=O)NCc4c(SC)cc(C)[nH]c4=O)c4cccnc43)CC2)C1` (single isomer, unassigned) [drawing 262]: 25 to 125 nM; `CSc1cc(C)[nH]c(=O)c1CNC(=O)c1c(C)n([C@H](C)C2CCC(NC3(C)CCOC3)CC2)c2ccccc12` (single isomer, unassigned) [drawing 270]: 25 to 125 nM.
